Values of other authors, collected in patent US20160089380A1, “PROGESTERONE IMPREGNATED VAGINAL RING/PESSARY” (YALE UNIVERSITY, priority 2014, published 2016).

Tests used:
[1] = system: women; settings: two studies
[2] = system: women

CC(=O)[C@H]1CC[C@H]2[C@@H]3CCC4=CC(=O)CC[C@]4(C)[C@H]3CC[C@]12C [progesterone]
risk of preterm birth <34 weeks (RR) ([1]; 438 women, 95% CI 0.45 to 0.90): 0.64
risk of preterm birth at <28 weeks' gestation (RR) ([1]; 1115 women, 95% CI 0.37 to 0.93): 0.59
risk of preterm birth <37 weeks (average RR) ([2]; 10 studies, 1750 women, 95% CI 0.42 to 0.74): 0.55
risk of preterm birth <34 weeks (average RR) ([2]; five studies, 602 women, 95% CI 0.14 to 0.69): 0.31
increase in pregnancy prolongation, mean difference (MD) ([2]; one study, 148 women, 95% CI 2.15 to 6.79): 4.47 weeks
